Like-named read-outs stand apart in the source and are kept apart here.
Columns and labels:
CD25 = CD25 expression by PMA/IOM-stimulated PBMC from asthma patients, flow cytometry; assay type: cell-based, human
Method: (§1) Venous blood was collected in polyethylene tubes containing EDTA between 9 and 10 a.m. PBMC were separated by Ficoll-paque (Pharmacia, Uppsala, Sweden) density gradient centrifugation. Cells were washed and suspended in AIM-V medium (Gibco BRL, Gaithersburg, Md.) at density of 2×10^6 cells/ml. PBMC were stimulated with 20 nM phorbol 12-myristate 13-acetate (PMA) and 1 μM ionomycin (IOM) (ICN Pharmaceuticals, Inc. CA, USA). The cells were harvested 24 hours later and supernatants were frozen at −70° C. until use. […] For BN52021, a range between 1×10^−9 and 1×10^−4 M was used.
(§2) Two-color flow cytometry was conducted using a Coulter Epics Profile II flow cytometer (Coulter Scientific, Hialeah, Fla., USA). Isotypic controls for the monoclonal antibodies (mAb) used to detect antigens of interest were established for each cell preparation. Positive analysis regions for cells expressing specific surface antigens were set against isotypic controls and specific binding of fluorophore-conjugated mAb was analyzed by cytofluorography according to standard methods. Lymphocyte subpopulations were identified by position on forward and side scatter plots and live-gated. Isotype matched antibodies were utilized to control for nonspecific fluorescence. […] Background values for antibodies used in assays were based on fluorescence of non-specific antibodies. […]

IL-5 = IL-5 expression by PMA/IOM-stimulated PBMC from asthma patients, ELISA; assay type: cell-based, human
Method: as §1
(§3) Cytokine expression (IL-4 and IL5) was evaluated in culture supernatants by enzyme-linked immunoabsorption assay (Amersham North America, Illinois, USA). The detection range was 10-400 pg/ml and 7.8-500 pg/ml respectively. Colorimetric changes proportional to supernatant cytokine concentration were measured using a model 2550 EIA reader (Bio-Rad Laboratories, Hercules Calif. USA). All assays were performed in duplicate.
(§4) The data shown Table 2 was obtained using cultures of 2×10^6 human PBMC, which were isolated from venous blood and stimulated 24 hours with media, 20 nM PMA+1.0 μM ionomycin (PMA/I), 1.0 μM cyclosporine A+PMA/IOM, or 1 μM ginkgolide BN52021+PMA. Expression of interleukins 4 and 5 were measured in PBMC culture supernatents by antibody capture ELISA. […]

[1] = system: lymphocyte activation markers; test: Dose range of BN52021 on lymphocyte activation markers in PBMC from asthma patients; assay type: cell-based, human; details: 1×10^−5 and 1×10^−7 M, 3 of the patients tested
Method: as §1, §2

CD54 = CD54 expression by PMA/IOM-stimulated PBMC from asthma patients, flow cytometry; assay type: cell-based, human
Method: as §1, §2

CD45RA = CD45RA expression by PMA/IOM-stimulated PBMC from asthma patients, flow cytometry; assay type: cell-based, human
Method: as §1, §2

[2] = target: platelet activating factor receptor (PAFR) (Homo sapiens, UniProt P25105); details: cited from earlier work
[3] = system: cAMP-specific phosphodiesterase; details: cited from earlier work
IL-4 = IL-4 expression by PMA/IOM-stimulated PBMC from asthma patients, ELISA; assay type: cell-based, human
Method: as §1, §3, §4

HLA-DR = HLA-DR expression by PMA/IOM-stimulated PBMC from asthma patients, flow cytometry; assay type: cell-based, human
Method: as §1, §2

[4] = 1 μM, PMA/IOM-stimulated cultures
[5] = PMA + IOM + 1 μM compound, 24 hours, ±SE

Sequence of platelet activating factor receptor (PAFR) (P25105 whole entry, species assumed): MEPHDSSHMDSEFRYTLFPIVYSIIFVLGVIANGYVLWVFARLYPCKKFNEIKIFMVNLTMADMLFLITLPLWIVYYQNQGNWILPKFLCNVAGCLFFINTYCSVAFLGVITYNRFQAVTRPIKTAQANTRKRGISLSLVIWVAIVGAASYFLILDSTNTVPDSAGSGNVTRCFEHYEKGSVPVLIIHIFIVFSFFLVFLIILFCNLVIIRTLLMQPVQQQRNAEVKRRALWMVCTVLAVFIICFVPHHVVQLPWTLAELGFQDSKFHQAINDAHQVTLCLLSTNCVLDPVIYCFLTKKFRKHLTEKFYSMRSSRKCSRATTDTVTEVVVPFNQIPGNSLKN

## C[C@@H]1C(=O)O[C@H]2[C@@H](O)[C@@]34[C@H]5C[C@@H](C(C)(C)C)[C@]36[C@@H](OC(=O)[C@@H]6O)O[C@@]4(C(=O)O5)[C@@]12O [BN52021, Ginkgolide B]
CD25; [4]
  effect on CD25 expression (in words): unaffected
CD25; [5]
  % CD25: 7.1 ± 2.0%
IL-5; [4]
  effect on IL-5 expression (in words): no statistically significant effect
IL-5; [5]
  IL-5 in culture supernatant: 374 ± 105 pg/mL
[1]
  change in lymphocyte activation markers (in words): No change occurred in lymphocyte activation markers
CD54; [4]
  effect on CD54 expression (in words): unaffected
CD54; [5]
  % CD54: 27.4 ± 6.9%
CD45RA; [4]
  effect on CD45RA expression (in words): decreased significantly
CD45RA; [5]
  % CD45RA: 48.8 ± 9.5 %
[2]
  PAFR antagonist activity (in words): PAFR antagonist activity
[2]; listed as Ginkgolide B
  PAFR antagonist activity (in words): PAFR antagonist
[3]
  cAMP phosphodiesterase inhibitory activity (in words): does not possess cAMP phophodiesterase activity
IL-4; [4]
  effect on IL-4 expression (in words): no statistically significant effect
IL-4; [5]
  IL-4 in culture supernatant: 81.7 ± 28.1 pg/mL
HLA-DR; [4]
  effect on HLA-DR expression (in words): a trend towards the reduction
HLA-DR; [5]
  % HLA-DR: 21.2 ± 5.3¶ %
